pIC50: −log10 of the molar value.
Columns and labels:
[1] = biological target: T1, Progesterone Receptor (PR)-LBD (Homo sapiens, UniProt P06401); assay: PR coactivator antagonist assay; type: biochemical; conditions: Table 8; 10 nM progesterone; read-out: PR antagonism
T1 sequence (P06401 679-913 limits assumed): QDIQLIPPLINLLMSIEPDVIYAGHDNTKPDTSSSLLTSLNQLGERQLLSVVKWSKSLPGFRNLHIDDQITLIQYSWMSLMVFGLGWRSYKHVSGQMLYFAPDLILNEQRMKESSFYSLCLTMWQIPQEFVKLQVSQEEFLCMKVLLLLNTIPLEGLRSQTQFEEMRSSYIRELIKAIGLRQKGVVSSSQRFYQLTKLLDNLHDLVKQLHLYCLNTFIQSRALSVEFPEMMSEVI
Protocol: PR coactivator antagonist assay: Test compound (Top dose 10 μM, 4 fold serial dilution, 8 point dose response) and/or vehicle was incubated with the 2.5 nM Progesterone Receptor (PR)-LBD and coactivator peptide for 30 minutes at RT. Determination of the amount of complex formed is read spectrofluorimetrically (excitation: 337 nm, emission: 520/490 nm). Test compound-induced inhibition of 10 nM progesterone-induced fluorescence response by 50 percent or more (>50%) indicates receptor antagonist activity.

[2] = biological target: T2, ligand binding domain of the glucocorticoid receptor (Homo sapiens, UniProt P04150); assay: GR antagonism assay (HEK293, dexamethasone 1.5 nM, Dual-glo); type: cell-based; conditions: Table 8
T2 construct: expressed in transfected cells
T2 sequence (P04150 524-758 limits assumed): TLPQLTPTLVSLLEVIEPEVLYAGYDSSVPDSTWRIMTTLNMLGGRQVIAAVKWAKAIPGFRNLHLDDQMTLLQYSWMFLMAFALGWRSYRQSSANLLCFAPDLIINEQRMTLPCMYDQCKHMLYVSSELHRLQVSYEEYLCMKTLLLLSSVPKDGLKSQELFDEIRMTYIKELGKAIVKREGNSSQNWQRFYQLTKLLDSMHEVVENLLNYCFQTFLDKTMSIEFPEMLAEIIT
Protocol: GR antagonism assay: To evaluate GR antagonist activity, test compound was added to the assay plate (top dose 5 μM, 4 fold serial dilution, 8 point dose response). HEK293 cells stably expressing the ligand binding domain of the glucocorticoid receptor were seeded at a density of 40000 cells/well in the assay plate. The assay plate was then incubated at 37° C., 5% CO2 for 30 minutes. Dexamethasone was added to the assay plate at 1.5 nM final concentration and the assay plate was incubated at 37° C., 5% CO2 for 20 h. After the incubation period, Dual-glo luciferase reagent was added to the assay plate and mixed at room temperature for 20 minutes on an orbital shaker, before reading out on the EnVision plate reader.

[3] = biological target: T3, Progesterone PR-B receptors from human breast carcinoma T47D cells (Homo sapiens, UniProt P06401); assay: PR binding assay, [3H]Progesterone; conditions: Table 8; 0.5 nM [3H]Progesterone
T3 construct: endogenous in cells; host or cells: T47D human breast carcinoma cells (cell supernatant)
T3 sequence (P06401 1-933): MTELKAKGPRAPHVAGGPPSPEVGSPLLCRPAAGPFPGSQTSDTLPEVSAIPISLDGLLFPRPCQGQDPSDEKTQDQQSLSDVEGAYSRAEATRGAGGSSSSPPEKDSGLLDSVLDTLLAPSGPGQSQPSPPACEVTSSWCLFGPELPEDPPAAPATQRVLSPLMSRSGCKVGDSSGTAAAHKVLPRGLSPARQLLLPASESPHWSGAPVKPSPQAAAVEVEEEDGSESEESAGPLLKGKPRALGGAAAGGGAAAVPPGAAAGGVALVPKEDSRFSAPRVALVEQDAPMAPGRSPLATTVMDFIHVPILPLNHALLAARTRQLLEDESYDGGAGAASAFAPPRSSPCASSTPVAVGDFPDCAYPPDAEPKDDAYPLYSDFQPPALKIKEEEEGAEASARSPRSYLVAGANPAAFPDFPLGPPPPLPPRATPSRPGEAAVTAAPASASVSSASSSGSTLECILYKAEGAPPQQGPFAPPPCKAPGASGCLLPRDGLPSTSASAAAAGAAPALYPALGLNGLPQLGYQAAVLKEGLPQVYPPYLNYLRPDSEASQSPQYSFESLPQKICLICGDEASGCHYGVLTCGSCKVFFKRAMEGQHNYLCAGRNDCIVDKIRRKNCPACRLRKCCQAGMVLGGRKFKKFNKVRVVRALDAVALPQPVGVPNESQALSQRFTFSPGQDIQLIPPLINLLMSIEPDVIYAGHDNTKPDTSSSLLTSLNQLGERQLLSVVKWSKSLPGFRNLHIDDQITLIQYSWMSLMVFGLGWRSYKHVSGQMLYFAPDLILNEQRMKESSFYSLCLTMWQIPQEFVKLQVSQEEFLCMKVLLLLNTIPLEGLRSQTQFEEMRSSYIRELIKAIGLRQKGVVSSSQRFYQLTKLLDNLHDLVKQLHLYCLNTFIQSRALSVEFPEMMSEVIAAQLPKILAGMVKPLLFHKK
Protocol: PR binding assay: Progesterone PR-B receptors from human breast carcinoma T47D cells are used in modified Na2HPO4/NaH2PO4 buffer pH 7.4. Compounds were screened at a range of doses (Top dose 40 nM, 4 fold serial dilution, 8 point dose response) and were dispensed into the assay plate. Supernatant of 1.2×10^5 cells aliquot was added to the assay plate and was incubated with 0.5 nM [^3H]Progesterone for 20 hours at 4° C. Membranes are filtered and washed, the filters are then counted to determine [^3H]Progesterone specifically bound. Binding IC50 was determined as the concentration where 50% inhibition of radioligand binding was observed.

| SMILES | pIC50 [1] | pIC50 [2] | pIC50 [3] |
| --- | --- | --- | --- |
| CC#C[C@]1(O)CC[C@H]2[C@@H]3CCC4=CC(=O)CCC4=C3[C@@H](c3ccc(N(C)CCCCCC(=O)NCCOCCOCC(=O)N4CCN(C(=O)c5cc(Cc6n[nH]c(=O)c7ccccc67)ccc5F)CC4)cc3)C[C@@]21C [Compound 1429, N-(2-(2-(2-(4-(2-fluoro-5-((4-oxo-3,4-dihydrophthalazin-1-yl)methyl)benzoyl)piperazin-1-yl)-2-oxoethoxy)ethoxy)ethyl)-6-((4-((8S,11R,13S,14S,17S)-17-hydroxy-13-methyl-3-oxo-17-(prop-1-ynyl)-2,3,6,7,8,11,12,13,14,15,16,17-dodecahydro-1H-cyclopenta[a]phenanthren-11-yl)phenyl)(methyl)amino)hexanamide] | > 8.00 | 7.00 to 8.00 | > 8.00 |
| CC(=O)O[C@]1(C(C)=O)CC[C@H]2[C@@H]3CCC4=CC(=O)CCC4=C3[C@@H](c3ccc(N(C)CCCCCC(=O)NCCOCCOCC(=O)N4CCN(C(=O)c5cc(Cc6n[nH]c(=O)c7ccccc67)ccc5F)CC4)cc3)C[C@@]21C [Compound 1384, (8S,11R,13S,14S,17R)-17-acetyl-11-(4-((6-(2-(2-(2-(4-(2-fluoro-5-((4-oxo-3,4-dihydrophthalazin-1-yl)methyl)benzoyl)piperazin-1-yl)-2-oxoethoxy)ethoxy)ethylamino)-6-oxohexyl)(methyl)amino)phenyl)-13-methyl-3-oxo-2,3,6,7,8,11,12,13,14,15,16,17-dodecahydro-1H-cyclopenta[a]phenanthren-17-yl acetate] | > 8.00 | 7.00 to 8.00 | > 8.00 |
| CC#C[C@]1(O)CC[C@H]2[C@@H]3CCC4=CC(=O)CCC4=C3[C@@H](c3ccc(N(C)CCCCCC(=O)N4CCN(C(=O)c5cc(Cc6n[nH]c(=O)c7ccccc67)ccc5F)CC4)cc3)C[C@@]21C [Compound 135, 4-(4-fluoro-3-(4-(6-((4-((8S,11R,13S,14S,17S)-17-hydroxy-13-methyl-3-oxo-17-(prop-1-ynyl)-2,3,6,7,8,11,12,13,14,15,16,17-dodecahydro-1H-cyclopenta[a]phenanthren-11-yl)phenyl)(methyl)amino)hexanoyl)piperazine-1-carbonyl)benzyl)phthalazin-1(2H)-one] | > 8.00 | > 8.00 | > 8.00 |
| C[C@]12CC[C@H]3[C@@H](CCC4=CC(=O)CC[C@@]43C)[C@@H]1CC[C@@H]2C(=O)COCCCCCC(=O)N1CCN(C(=O)c2cc(Cc3n[nH]c(=O)c4ccccc34)ccc2F)CC1 [Compound 1386, 4-(3-(4-(6-(2-((8S,9S,10R,13S,14S,17S)-10,13-dimethyl-3-oxo-2,3,6,7,8,9,10,11,12,13,14,15,16,17-tetradecahydro-1H-cyclopenta[a]phenanthren-17-yl)-2-oxoethoxy)hexanoyl)piperazine-1-carbonyl)-4-fluorobenzyl)phthalazin-1(2H)-one] | < 5.00 | 6.00 to 7.00 | 7.00 to 8.00 |
| CC(=O)O[C@]1(C(C)=O)CC[C@H]2[C@@H]3CCC4=CC(=O)CCC4=C3[C@@H](c3ccc(N(C)CCCCCC(=O)N4CCN(C(=O)c5cc(Cc6n[nH]c(=O)c7ccccc67)ccc5F)CC4)cc3)C[C@@]21C [Compound 1378, (8S,11R,13S,14S,17R)-17-acetyl-11-(4-((6-(4-(2-fluoro-5-((4-oxo-3,4-dihydrophthalazin-1-yl)methyl)benzoyl)piperazin-1-yl)-6-oxohexyl)(methyl)amino)phenyl)-13-methyl-3-oxo-2,3,6,7,8,11,12,13,14,15,16,17-dodecahydro-1H-cyclopenta[a]phenanthren-17-yl acetate] | > 8.00 | > 8.00 | > 8.00 |

From patent US11952349B2, “Anti-cancer nuclear hormone receptor-targeting compounds” (Nuvation Bio Inc., priority 2019, dated 2024)
